The record followed here is patent US20240368135A1 (VERTEX PHARMACEUTICALS INCORPORATED, priority 2021, published 2024).

As usually defined, the IC50 is the concentration at which inhibition is half-maximal.

Chain of human NaV 1.8 (Q9Y5Y9 126-399 limits assumed): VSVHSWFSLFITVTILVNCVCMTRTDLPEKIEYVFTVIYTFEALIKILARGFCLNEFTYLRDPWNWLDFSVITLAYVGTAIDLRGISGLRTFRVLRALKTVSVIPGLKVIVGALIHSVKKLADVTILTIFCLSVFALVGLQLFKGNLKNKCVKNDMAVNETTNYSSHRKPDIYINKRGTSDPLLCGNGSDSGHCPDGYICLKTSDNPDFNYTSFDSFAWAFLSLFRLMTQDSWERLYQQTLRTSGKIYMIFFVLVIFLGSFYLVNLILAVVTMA
Chain of human NaV 1.8 (Q9Y5Y9 660-890 limits assumed): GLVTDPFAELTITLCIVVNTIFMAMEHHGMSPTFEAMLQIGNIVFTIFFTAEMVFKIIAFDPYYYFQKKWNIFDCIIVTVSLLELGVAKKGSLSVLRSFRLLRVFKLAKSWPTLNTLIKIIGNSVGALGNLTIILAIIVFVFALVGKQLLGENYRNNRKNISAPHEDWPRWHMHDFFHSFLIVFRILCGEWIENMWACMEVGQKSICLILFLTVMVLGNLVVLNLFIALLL
Chain of human NaV 1.8 (Q9Y5Y9 1148-1722 limits assumed): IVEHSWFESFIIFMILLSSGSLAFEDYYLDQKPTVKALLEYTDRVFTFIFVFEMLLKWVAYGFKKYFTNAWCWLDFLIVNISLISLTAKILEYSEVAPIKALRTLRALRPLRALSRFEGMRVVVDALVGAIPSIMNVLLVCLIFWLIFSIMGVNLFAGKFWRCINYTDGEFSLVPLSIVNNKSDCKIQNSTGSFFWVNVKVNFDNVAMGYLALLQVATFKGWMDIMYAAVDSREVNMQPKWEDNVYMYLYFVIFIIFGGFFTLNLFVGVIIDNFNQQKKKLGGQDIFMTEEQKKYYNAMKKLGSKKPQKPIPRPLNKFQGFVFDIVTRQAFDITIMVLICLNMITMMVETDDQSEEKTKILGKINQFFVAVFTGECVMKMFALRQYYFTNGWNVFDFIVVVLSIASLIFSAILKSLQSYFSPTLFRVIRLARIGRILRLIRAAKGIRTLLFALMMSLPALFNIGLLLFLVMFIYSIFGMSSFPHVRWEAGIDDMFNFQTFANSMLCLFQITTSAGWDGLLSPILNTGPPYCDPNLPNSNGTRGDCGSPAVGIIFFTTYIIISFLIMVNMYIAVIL

The target of the test is human NaV 1.8 (Homo sapiens, UniProt Q9Y5Y9). Nature of the test: E-VIPR assay detecting and measuring NaV inhibition properties. The class given is cell-based. To be noted: HEK cells expressing truncated human NaV 1.8; no human serum; read-out: IC50 in the E-VIPR Assay. From the text:
Sodium ion channels are voltage-dependent proteins that can be activated by inducing membrane voltage changes by applying electric fields. The electrical stimulation instrument and methods of use, referred to as E-VIPR, are described in International Publication No. WO 2002/008748 A3 and C.-J. Huang et al. Characterization of voltage-gated sodium channel blockers by electrical stimulation and fluorescence detection of membrane potential, 24 Nature Biotech. 439-46 (2006), both of which are incorporated by reference in their entirety. The instrument comprises a microtiter plate handler, an optical system for exciting the coumarin dye while simultaneously recording the coumarin and oxonol emissions, a waveform generator, a current- or voltage-controlled amplifier, and parallel electrode pairs that are inserted into assay plate wells. Under integrated computer control, this instrument passes user-programmed electrical stimulus protocols to cells within the wells of the microtiter plate.
16-20 hours prior to running the assay on E-VIPR, HEK cells expressing a truncated form of human NaV 1.8 with full channel activity were seeded into microtiter 384-well plates, pre-coated with matrigel, at a density of 25,000 cells per well. 2.5-5% KIR2.1 Bacmam virus was added to the final cell suspension before seeding into cell plates. HEK cells were grown in Dulbecco's Modified Eagle's Medium (DMEM) supplemented with 10% FBS (Fetal Bovine Serum, qualified; Sigma #F4135), 1% NEAA (Non-Essential Amino Acids, Gibco #11140), 1% HEPES (Gibco #15630), 1% Pen-Strep (Penicillin-Streptomycin; Gibco #15140) and 5 μg/ml Blasticidin (Gibco #R210-01). Cells were expanded in vented cap cell culture flasks, with 90-95% humidity and 5% CO2.
Human Serum (HS, Millipore #S1P1-01KL, or Sigma SLBR5469V and SLBR5470V as a 50%/50% mixture, for 25% assay final concentration) • Bath 1 Buffer: • Sodium Chloride 160 mM (9.35 g/L), Potassium Chloride, 4.5 mM (0.335 g/L), Glucose 10 mM (1.8 g/L), Magnesium Chloride (Anhydrous) 1 mM (0.095 g/L), Calcium Chloride 2 mM (0.222 g/L), HEPES 10 mM (2.38 g/L) in water. • Na/TMA C1 Bath 1 Buffer: • Sodium Chloride 96 mM (5.61 g/L), Potassium Chloride 4.5 mM (0.335 g/L), Tetramethylammonium (TMA)-Cl 64 mM (7.01 g/L), Glucose 10 mM (1.8 g/L), Magnesium Chloride (Anhydrous) 1 mM (0.095 g/L), Calcium Chloride 2 mM (0.222 g/L) HEPES 10 mM (2.38 g/L) in water. • Hexyl Dye Solution (2× concentration): • Bath 1 Buffer containing 0.5% P-cyclodextrin (made fresh prior to each use, Sigma #C4767), 8 μM CC2-DMPE and 2 μM DiSBAC6(3). The solution was made by adding 10% Pluronic F127 stock equal to combined volumes of CC2-DMPE and DiSBAC6(3). The order of preparation was first mix Pluronic and CC2-DMPE, then add DiSBAC6(3), then while vortexing add Bath 1/p-Cyclodextrin.
Compound Loading Buffer (2× concentration): Na/TMA C1 Bath1 Buffer containing HS (omitted in experiments run in the absence of human serum (HS)) 50%, VABSC-1 1 mM, BSA 0.2 mg/ml (in Bath-1), KCl 9 mM, DMSO 0.625%.
1) To reach the final concentration in each well, 375 nL of each compound was pre-spotted (in neat DMSO) into polypropylene compound plates at 240× desired final concentration from an intermediate stock concentration of 0.075 mM, in an 11 point dose response, 3-fold dilution, resulting in a top dose of 300 nM final concentration in the cell plate. Vehicle control (neat DMSO), and positive control (an established NaV1.8 inhibitor, 25 μM final in assay in DMSO) were added manually to the outermost columns of each plate respectively. The compound plate was backfilled with 45 μL per well of Compound Loading Buffer resulting in a 240 fold dilution of compound following a 1:1 transfer of compound into the cell plate (see Step 6). Final DMSO concentration for all wells in the assay was 0.625% (0.75% DMSO was supplemented to the Compound Loading Buffer for a final DMSO concentration of 0.625%). […]
In the case of `COc1c([C@H]2[C@H](C(=O)Nc3ccc(C(=O)N(C)S(C)(=O)=O)nc3)O[C@@](C)(C(F)(F)F)[C@H]2C)ccc(F)c1F` [Compound 376, 5-[[(2R,3S,4S,5R)-3-(3,4-difluoro-2-methoxy-phenyl)-4,5-dimethyl-5-(trifluoromethyl)tetrahydrofuran-2-carbonyl]amino]-N-methyl-N-methylsulfonyl-pyridine-2-carboxamide], the IC50 lay within 0.01 to 0.1 µM.

Take `COc1c([C@H]2[C@H](C(=O)Nc3cc(CO)ncn3)O[C@@](C)(C(F)(F)F)[C@H]2C)ccc(F)c1F` [Compound 246, (2R,3S,4S,5R)-3-(3,4-difluoro-2-methoxyphenyl)-N-(6-(hydroxymethyl)pyrimidin-4-yl)-4,5-dimethyl-5-(trifluoromethyl)tetrahydrofuran-2-carboxamide]: the IC50 is less than 0.01 µM.

For the molecule `Cc1ncc(C2CCOC2)cc1NC(=O)[C@@H]1O[C@@](C)(C(F)(F)F)[C@@H](C)[C@H]1c1ccc(F)c(F)c1OCCO` (stereo partly drawn) [Compound 551, (2R,3S,4S,5R)-3-(3,4-difluoro-2-(2-hydroxyethoxy)phenyl)-4,5-dimethyl-N-(2-methyl-5-(tetrahydrofuran-3-yl)pyridin-3-yl)-5-(trifluoromethyl)tetrahydrofuran-2-carboxamide], the IC50 is not below 1 µM. For `COc1c([C@H]2[C@H](C(=O)Nc3cc(C4(N)CCOC4)ncc3F)O[C@@](C)(C(F)(F)F)[C@H]2C)ccc(F)c1F` (single isomer, unassigned) [Compound 349, rel-(2R*,3S*,4S*,5R*)-N-(2-(3-aminotetrahydrofuran-3-yl)-5-fluoropyridin-4-yl)-3-(3,4-difluoro-2-methoxyphenyl)-4,5-dimethyl-5-(trifluoromethyl)-tetrahydrofuran-2-carboxamide], the IC50 was less than 0.01 µM. For the molecule `Cc1c(F)ccc([C@@H]2[C@@H](C(=O)Nc3ccn(C)c(=O)c3)O[C@](C)(C(F)(F)F)[C@@H]2C)c1OC(F)F` (stereo in doubt) [Compound 99, rel-(2S,3R,4R,5S)-3-(2-(difluoromethoxy)-4-fluoro-3-methylphenyl)-4,5-dimethyl-N-(1-methyl-2-oxo-1,2-dihydropyridin-4-yl)-5-(trifluoromethyl)tetrahydrofuran-2-carboxamide], the IC50 was not below 1 µM.

With `COc1c([C@@H]2[C@@H](C(=O)Nc3ccc(C(=O)O)nc3)O[C@](C)(C(F)(F)F)[C@@H]2C)ccc(F)c1C(F)F` (single isomer, unassigned) [Compound 177], the IC50 is not below 1 µM. With `COc1c(C2C(C(=O)Nc3ccn(C)c(=O)c3)OC(C)(C(F)(F)F)C2C)ccc(F)c1F` (single isomer, unassigned) [Compound 28, 3-(3,4-difluoro-2-methoxy-phenyl)-4,5-dimethyl-N-(1-methyl-2-oxo-4-pyridyl)-5-(trifluoromethyl)tetrahydrofuran-2-carboxamide], the IC50 is less than 0.01 µM. Consider `COc1c([C@H]2[C@H](C(=O)Nc3ccnc(C(C)(O)CO)c3)O[C@@](C)(C(F)(F)F)[C@H]2C)ccc(F)c1F` (relative stereo) [Compound 3, rel-(2R*,3S*,4S*,5R*)-3-(3,4-difluoro-2-methoxyphenyl)-N-(2-(1,2-dihydroxypropan-2-yl)pyridin-4-yl)-4,5-dimethyl-5-(trifluoromethyl)tetrahydrofuran-2-carboxamide], for which the IC50 was less than 0.01 µM. In the case of `CCOc1c([C@H]2[C@H](C(=O)Nc3ccn4nnnc4c3)O[C@@](C)(C(F)(F)F)[C@H]2C)ccc(F)c1C` (stereo in doubt) [Compound 121, rac-(2R,3S,4S,5R)-3-(2-ethoxy-4-fluoro-3-methylphenyl)-4,5-dimethyl-N-(tetrazolo[1,5-a]pyridin-7-yl)-5-(trifluoromethyl)tetrahydrofuran-2-carboxamide], the IC50 was less than 0.01 µM. Consider `CC(C)Oc1c(C2C(C(=O)Nc3cc(S(C)(=O)=O)ccn3)OC(C)(C(F)(F)F)C2C)ccc(F)c1F` (stereo not shown) [Compound 116, 3-(3,4-difluoro-2-isopropoxy-phenyl)-4,5-dimethyl-N-(4-methylsulfonyl-2-pyridyl)-5-(trifluoromethyl)tetrahydrofuran-2-carboxamide], for which the half-maximal inhibitory concentration (IC50) lay in the range of 0.1 to 1 µM.
